US8318491B2, “Method of differentiating hematopoietic stem cells into natural killer cells using YC-1 or IL-21” (Korea Research Institute of Bioscience and Biotechnology, priority 2007, dated 2012)

Experiments:
[1] = test system: hematopoietic stem cells of cord blood / NK precursor cells (pNK); assay: FACS analysis of CD56+ NK cell population during differentiation of cord blood hematopoietic stem cells into mature NK cells via NK precursor cells; format: cell-based, human; conditions: for NK cells (FACS analysis): in the presence of IL-15, FIGS. 10 and 11; for CD56+ NK cell population: cultured in the presence of IL-15, vs IL-15 alone
Method: Cord blood provided from Department of Obstetric & Gynecology, Konyang University Hospital, Taejon, Korea, for the purpose of study only was diluted in RPMI 1640 (GIBCO-BRL, USA) at the ratio of 2:1. The prepared cord blood was loaded on the upper part of Ficoll-Paque (Sigma, USA), followed by centrifugation ([…], 30 minutes) to separate mononuclear cells (MNC). Erythrocytes were eliminated from the obtained cells and the obtained mononuclear cells were marked with the hematopoietic stem cell marker ‘CD34 microbeads’. Then, CD34+ cells were separated by MS/RS column and MACS (Magnetic Activated Cell Sorter). The purity of the obtained CD34+ hematopoietic stem cells (referred as “HSC cells” hereinafter) was measured by FACS (BD Bioscience, Mountainview, Calif.), which was 92% (FIG. 1).
The HSC cells separated from cord blood in Example 1 were inoculated in a 12-well plate (Falcon, USA) containing the Myelocult complete medium (Stem cell Technology, CA) supplemented with 30 ng/ml of human […] (PeproTech, USA), 50 ng/ml of human Flt3L (FMS-like tyrosine kinase 3 ligand, PeproTech, USA), 5 ng/ml of human IL-7 (PeproTech, USA), and 10^−6 M of […] at the concentration of 1×10^6 cells/well, followed by culture for 14 days in a 37° C., 5% CO2 incubator. Three days later, half of the supernatant was replaced with a fresh medium containing cytokines having the same composition as the above. For the differentiation into mature NK cells (referred as “NK cells” hereinafter), HSC cells were recovered 14 days later and cultured again for 14 days in the presence of human IL-15 (30 ng/ml, PeproTech, USA). Three days later, half of the medium was replaced with a fresh medium containing cytokines having the same composition as the above. (FIG. 2). On the 28th day of culture, the purity of NK cells was measured by using anti-CD56 antibody and the expression of NK cell receptor was measured by flow cytometry (FACS) (FIG. 3).
(§1) To investigate the effect on NK cell differentiation of IL-21 known to promote differentiation and increase activity, IL-21 (20 ng/ml, PeproTech, USA) was treated during the process of differentiation from hematopoietic stem cells of cord blood into mature NK cells (mNK) through NK precursor cells (pNK). The cells were cultured in the presence of IL-15, followed by FACS analysis and ^51Cr release assay.
To investigate the effect on NK cell differentiation of YC-1 [3-(5′-hydroxymethyl-2′-furyl)-1-benzylindazole, formula 1] known as an anticancer agent functioning in suppressing HIF-1α activity to inhibit tumor cell growth, YC-1 (1 uM, Sigma) was treated during the process of differentiation from hematopoietic stem cells of cord blood into mature NK cells (mNK) through NK precursor cells (pNK). […]

[2] = test system: NK cells; assay: 51Cr release assay of the killing activity of differentiated mature NK cells; format: cell-based, human; conditions: cultured in the presence of IL-15
Method: as §1
To investigate the effect on NK cell differentiation of YC-1 [3-(5′-hydroxymethyl-2′-furyl)-1-benzylindazole, formula 1] known as an anticancer agent functioning in suppressing HIF-1α activity to inhibit tumor cell growth, YC-1 (1 uM, Sigma) was treated during the process of differentiation from hematopoietic stem cells of cord blood into mature NK cells (mNK) through NK precursor cells (pNK). The cells were cultured in the presence of IL-15, followed by FACS analysis and ^51Cr release assay.

Row | Compound | NK cells (FACS analysis) ([1]; YC-1 0.5 uM alone (low concentration)) | CD56+ NK cell population ([1]; YC-1 1 uM treated to pNK, FIGS. 7 and 8) | killing activity of NK cells ([2]; YC-1 1 uM, E:T 5:1, FIG. 9) | NK cells (FACS analysis) ([1]; IL-21 10 ng/ml alone (low concentration)) | CD56+ NK cell population ([1]; IL-21 20 ng/ml treated to pNK, FIGS. 4 and 5) | killing activity of NK cells ([2]; IL-21 20 ng/ml, E:T 2.5:1, FIG. 6)
1 | OCc1ccc(-c2nn(Cc3ccccc3)c3ccccc23)o1 [YC-1, 3-(5′-hydroxymethyl-2′-furyl)-1-benzylindazole] | slightly increased | increased | increased | – | – | –
2 | IL-21: cytokine secreted by activated CD4+ T cells; amino acid sequence represented by SEQ. ID. NO: 1 (PeproTech) | – | – | – | slightly increased | increased | increased
